One data set has as its system human hair follicles. As to the kind of experiment: Ratio of hair follicle telogen in DHT-treated cultured hair follicles (visual evaluation). Conditions: for Telogen ratio (%): 6 days. As to the method: (§1) The ratio of hair follicle telogen and the expression level of hair follicle cell proliferation-related factor proteins depending on whether 3-hydroxypropionic acid was applied or not were evaluated according to the following methods.
(§2) The human hair follicles or scalp tissues provided for research purposes (IRB No. 4-2023-1052; Institutional Review Board, Severance Medical Center, Yonsei University College of Medicine) were washed several times with PBS to remove residual impurities, and randomly divided into each group. The hair follicles and scalp tissues were cultured in Williams' Medium E (Sigma) supplemented with 2 mM L-glutamine (Sigma-Aldrich), 10 µg/ml insulin (Sigma-Aldrich), 100 ng/ml hydrocortisone (Sigma-Aldrich), 0.1% fungizone (Gibco, USA), and 1% antibioticantimycotic (Gibco), and 1% […] (Gibco) at 37°C in 5% CO2.
To induce the telogen in the anagen hair follicle tissue, the test composition was treated with 1 µM dihydrotestosterone (DHT). The medium was replaced every 3 days and cultured for 6 days. The ratio of hair follicle telogen was visually evaluated based on the ratio of hair follicles in which the telogen occurred for 6 days compared to day 0.

A short description of data set [1]: Cell viability (WST / CCK-8 absorbance at 450 nm). In kind it is cell-based, Human. The note with it: human, follicle dermal papilla cells, 24 hours. The procedure:
(§3) Human follicle dermal papilla cells (PromoCell GmbH) were cultured in human follicle dermal papilla cells growth medium(PromoCell GmbH) supplemented with fetal calf serum(FCS), bovine pituitary extract(BPE), basic fibroblast growth factor(bFGF), and insulin at 37°C and 5% CO2.
(§4) […] WST substrate solution (high sensitivity water soluble tetrazolium salt, CCK-8, DOJINDO) was then added to the medium, and cultured at 37°C for 2 hours.
(§5) During the culture, a […] formazan was produced by the reaction between WST and intracellular dehydrogenase, and the absorbance (OD, wavelength 450 nm) was measured. The cell viability was calculated according to the following Equation 1 below, and the results are shown in Table 1 below. [formula]
(§6) In Equation 1, the 'experimental group' is the group treated with an aqueous solution containing 3HP; the 'control group' is the medium containing only the WST substrate; and the 'negative control group' is the group in which a medium containing WST substrate was treated with an aqueous solution of 0% 3HP.

In data set [2] the test system is Human follicle dermal papilla cells. As to the kind of experiment: Cell viability (WST / CCK-8 absorbance at 450 nm). Format: cell-based. The note with it: for Human follicle dermal papilla cell viability (%): 24 hours, single runs (Once / Two times / Three times), 1440 min. As to the method:
as §3, §4, §5, §6

The next data set concerns Srd5α1. As to the kind of experiment: 5α-reductase gene expression by real-time PCR (relative quantification vs GAPDH). In kind it is cell-based, Human. Conditions: for mrna remaining at 0.0125 %: 3HP 0.0125 %; for mrna remaining at 0.025 %: 3HP 0.025 %. As to the method: as §3
(§7) The cultured human follicle dermal papilla cells were divided into 5x10^4 cells in a 96-well plate, and when the cells reached 80% or more confluency, they were treated with the 3-hydroxypropionic acid aqueous solution according to Preparation Example 1 at four concentrations (3HP concentrations: 0 wt.%, 0.0125 wt.%, 0.025 wt.%, and 0.05 wt.%), and then cultured for 24 hours. Then, the total RNA in the cells was extracted, and cDNA was synthesized from the extracted RNA. The synthesized cDNA was subjected to real-time polymerase chain reaction. And, the relative quantitative analysis of each gene was performed using GAPDH (one of the house-keeping genes). The relative quantification (RQ) value was calculated according to the following Equation 2. RQ = 2−ΔΔCT; ΔΔCT = ΔCT (Treatment)−ΔCT (Control); ΔCT = CT (Targetgene)−CT (House-keepinggene) [formula]
(§8) In the Equation 2, 'Treatment' is the group treated with 3HP; 'Control' is the group not treated with 3HP; 'Target gene' is Srd5α1 and TGF-β1, and 'House-keeping gene' is GAPDH.

For another data set, the system named is TGF-β1. As to the kind of experiment: TGF-β1 gene expression by real-time PCR (relative quantification vs GAPDH). The note with it: for mrna remaining at 0.0125 %: 3HP 0.0125 %; for mrna remaining at 0.025 %: 3HP 0.025 %. Format: cell-based, Human. As to the method:
as §3, §7, §8

For a further data set, the system named is hair follicle cells. As to the kind of experiment: Ki67 immunofluorescence staining of cultured scalp tissue (hair follicle cell proliferation). The note with it: for Ki67 positive cells (%): scalp tissue, 24 hours. On the set-up: species or system human. As to the method:
as §1, §2
After the scalp tissue was treated with the test composition for 24 hours, the obtained tissue was prepared into a frozen block, and frozen sectioned at a thickness of 5 µm using a Cryostat microtome (Leica Biosystems, Germany), and the tissue sections were attached onto Silane-coated slides. Then, in order to stain the tissue sections and photograph the cross sections, the OCT compound was removed, a primary antibody specifically binding to Ki67 (Anti-Ki67 antibody: ab15580; abcam) was attached, and a fluorescently labeled secondary antibody specifically binding to this primary antibody (Goat pAb to Rb IgG (H+L): a11012; Invitrogen) was attached. Finally, the tissues were fixed with a fixative containing blue fluorescent DAPI (VECTASHIELD® mounting medium with DAPI; Vector laboratories) that stains the cell nucleus, and then images were taken at 100x magnification using a fluorescence microscope (M2; Zeiss). The percentage of Ki67-expressing cells among the total cells labeled with DAPI was measured from the captured images, and a higher value means a higher number of Ki67-expressing cells.

Setting [3] is: Homo sapiens, 24 h, 24 hours, human follicle dermal papilla cells, Average, read-out: 5α-reductase gene expression level (RQ).
Setting [4] is: Homo sapiens, 24 h, 24 hours, human follicle dermal papilla cells, single runs (Once / Two times / Three times), read-out: 5α-reductase gene expression level (RQ).
Where [5] appears, read: Homo sapiens, 24 h, 24 hours, human follicle dermal papilla cells, Average, read-out: TGF-β1 gene expression level (RQ).
The mark [6] stands for this setting: Homo sapiens, 24 h, 24 hours, human follicle dermal papilla cells, single runs (Once / Two times / Three times), read-out: TGF-β1 gene expression level (RQ).

“And” between values parts separate entries of the source, which are not always exact repeats. Equal values may be shown once. Read-outs that look alike come from different tables or passages of the source.

Data on five compounds can be found in patent EP4684783A1, “COSMETIC COMPOSITION FOR PREVENTING, ALLEVIATING, OR AMELIORATING HAIR LOSS” (LG Chem, Ltd., priority 2023, dated 2025).

Consider `CC(C)(C)NC(=O)[C@H]1CC[C@H]2[C@@H]3CC[C@H]4NC(=O)C=C[C@]4(C)[C@H]3CC[C@]12C` [Finasteride, reference compound], for which, in the data set with human hair follicles (DHT + 0.5 mM Finasteride), the “Telogen ratio (%)” value is 0.000%.
In the case of `O=C(O)CCO` [Example 3HP, 3-hydroxypropionic acid], the viability at 24 h in data set [1] (3HP 0.0125 %, Average) came to 92.6%; in data set [1] (3HP 0.0125 %, single runs (Once / Two times / Three times)), 90.8%; in data set [1] (3HP 0.025 %, Average) it was 86.7%; in data set [1] (3HP 0.025 %, single runs (Once / Two times / Three times)), 86.6%; in data set [1] (3HP 0.05 %, Average), 85.8%; in data set [1] (3HP 0.05 %, single runs (Once / Two times / Three times)), 86.5%. Moreover, the viability at 24 h in data set [1] (3HP 0.1%, Average) was 75.3%; in data set [1] (3HP 0.1%, single runs (Once / Two times / Three times)), 77.5%. The “Human follicle dermal papilla cell viability (%)” value in data set [2] (3HP 0.0125 %) was 92.037% and 95.062%; in data set [2] (3HP 0.025 %), 84.153% and 89.275%; in data set [2] (3HP 0.05 %) it was 86.027% and 85.031%; in data set [2] (3HP 0.1%), 72.756% and 75.694%. For the same compound, the cell viability result in data set [2] (under the treatment concentrations of Table 2, result in words) is on record as “high”. Moreover, the mrna remaining at 0.0125 % in the data set with Srd5α1 (setting [3]) stood at 86.6%; in the data set with Srd5α1 (setting [4]), 85.6%; in the data set on TGF-β1 (setting [5]) it was 80.2%; with TGF-β1 (setting [6]), 75.6%. For the same compound, the mrna remaining at 0.025 % in the data set on Srd5α1 (setting [3]) is 88.8%; with Srd5α1 (setting [4]) it was 87.1%; in the data set on TGF-β1 (setting [5]), 69.4%; in the data set on TGF-β1 (setting [6]), 70.4%. Also, the mrna remaining at 0.05 % in the data set with Srd5α1 (Homo sapiens, 24 h, 3HP 0.05 %, 24 hours, human follicle dermal papilla cells, Average, read-out: 5α-reductase gene expression level (RQ)) turned out to be 127%; in the data set with TGF-β1 (Homo sapiens, 24 h, 3HP 0.05 %, 24 hours, human follicle dermal papilla cells, Average, read-out: TGF-β1 gene expression level (RQ)) it was 130%. Besides, in the data set with Srd5α1 (under the treatment concentration of Table 3, result in words), the “expression of the 5α-reductase gene” value is on record as “significantly inhibited”. In the data set with TGF-β1 (under the treatment concentration of Table 4, result in words), the “expression of the TGF-β1 gene” value was “significantly inhibited”. Also, the “hair follicle telogen ratio” value in the data set with human hair follicles (0.1%, 0.5%, and 1.0% 3HP compared to the DHT control group, result in words) is given as “significantly decreased”. Further, the “Telogen ratio (%)” value with human hair follicles (DHT + 0.1% 3HP) is 6.250%; in the data set on human hair follicles (DHT + 0.5% 3HP) it was 0.000%; in the data set with human hair follicles (DHT + 1.0% 3HP), 0.000%. In addition, the “proliferation effect of hair follicle cells” value with hair follicle cells (0.1% 3HP compared to the negative control group, Ki67 immunofluorescence staining, result in words) is listed as “significantly increased”. Also, the “Ki67 positive cells (%)” value with hair follicle cells (0.1% 3HP) stood at 48.745%.
`C[C@]12CCC(=O)C[C@@H]1CC[C@@H]1[C@@H]2CC[C@]2(C)[C@@H](O)CC[C@@H]12` [DHT, dihydrotestosterone, reference compound]: in the data set on human hair follicles (1 µM DHT alone (DHT control group)), the “Telogen ratio (%)” value came to 40.000%.
Turning to `O=C(O)CCCC[C@@H]1SC[C@@H]2NC(=O)N[C@@H]21` [Biotin, reference compound], the “Telogen ratio (%)” value in the data set with human hair follicles (DHT + 2 ng/ml Biotin) is 10.000%. Also, the “Ki67 positive cells (%)” value in the data set with hair follicle cells (2 ng/ml Biotin) came to 44.631%.
For `Nc1cc(N2CCCCC2)nc(N)[n+]1[O-]` [Minoxidil, reference compound], the “Ki67 positive cells (%)” value with hair follicle cells (0.1 mM Minoxidil) came out at 47.187%.
